Legend:
RG2 cells = assay: Fusion peptide cell killing, propidium iodide/FACS viability, RG2 cells; assay type: cell-based, rat; details: peptides in complete media for 1 hr, Table 2
Protocol: (§1) Other experiments were performed using two glioma cell lines, i.e., T98G and RG2. 1×10^6 cells per well were incubated in 6-well plates with peptides in complete media for 1 hr. Cells were removed from the plate using a cell stripper and the percentage of viable cells was determined by staining with propidium iodide and analyzing by fluorescence activated cell sorting (FACS).
(§2) There are 4 conserved amino acid differences between the rat and human CDKI sequence. Both sequences were attached to Tat and tested for cell killing activity in the rat glioma RG2 cells. Also the effect of orientation of the Tat and CDKI domains were tested. RG2 cells were plated on 6 well plates at approximately 70% confluency. Each of the peptides was added to the wells with increasing concentration. After 1 hr, cells were removed from the plates, washed 2× with PBS, stained with propidium iodide and analyzed by FACS for viable cells.
(§3) Cell viability studies were performed by plating the cells under the same conditions as the uptake studies. Cells were incubated with fluorescent peptides for 1 hr at 37° C. The cells were removed from the plate using cell striper. They were labeled with propidium iodide and fluorescein-AM. Percent PI positive cells were determined by FACS.
(§4) The cytotoxicity of the chimeric peptides was characterized using a cell viability assay. Peptides were added to cells at a fixed concentration. After a 30-minute incubation, cells were removed from the plate, stained with propidium iodide and the % positive cells were determined by FACS (fluorescent activated cell scanning). The test conditions were Tat, ANT, Tat-P14ARF, ANT-P14ARF and P14ARF. T98G cells were tested along with RG2 cells and A172 cells.

[1] = as above; assay type: cell-based, rat; details: peptides in complete media for 1 hr, Table 2
Protocol: as §1, §2, §3, §4

[2] = Fusion peptide cell killing, propidium iodide/FACS viability, T98G cells; assay type: cell-based, human; details: peptides in complete media for 1 hr, Table 2, read-out: % Viable Cells
Protocol: as §1, §3

T98G cells = assay: as above; assay type: cell-based, human
Protocol: as §1, §3

A172 cells = assay: Fluorescein peptide uptake by A172 cells, fluorescence microscopy; assay type: cell-based, human; details: 30 uM peptide, 1 hr, 37° C., serum containing media
Protocol: For fluorescent microscopy studies cells were plated on 2 chamber cover slips at a density of 1×10^4 cells/chamber. Cells were incubated with […] peptide for 30 minutes in completed media, washed with PBS 3× and imaged using a Nikon Axiophot inverted fluorescent microscope. Images were taken using a Spot CCD camera.
Synthetic peptides derived from HIV Tat (Tat) and the Drosophila antennaepedia homeodomain (ANT) were tested for cell uptake by A172 cells (human glioblastomas). The peptides were labeled at the N-terminus with fluorescein. Cells were incubated with 30 uM peptide at 37° C. in serum containing media. Fluorescent micrographs were taken after 1 hr incubation at 37° C. […] The size of the peptide was increased by added an Mdm-2 binding domain derived from P14ARF. This domain was added to the C-terminus of the Tat and ANT peptides. The P14ARF domain was also placed at the N-terminus followed by the Tat peptide. All the peptides were labeled at the N-terminus with fluorescein and cell incubations similar to the Tat and ANT peptides were tested for cellular uptake. […] Both the bright field and fluorescent micrographs show altered cell morphology.

[3] = tested on: endothelial cells and smooth muscle cells of rat cerebral arteries; assay: Uptake of fluorescent peptides by pressure-mounted rat cerebral arteries; assay type: cell-based; details: intraluminal perfusion of fluorescent peptide
Protocol: Tat-P16 peptides were prepared and labeled with fluorescein for use in uptake studies using intact blood vessels isolated from rat brain. Blood vessels were dissected from rat brain and stabilized in an isolated perfusion system in which vessels were attached on either end to catheters and placed under physiological pressure. Following a 10 minute perfusion of the isolated vessels with flurorescent Tat-P16 peptide (1 μM), vessels were examined for uptake of the peptides. […] Within the endothelial cells, the labeled peptides were seen to be localized to the cell nuclei, further confirming uptake of the peptides by the cells.
The peptides are fairly labile in the media and approximately 50% are degraded upon incubation at 37° C. in complete media (qualitative analysis by PAGE) after 1 hour. […] Uptake of these peptides and cell killing activity was tested in a 3 dimensional organ culture using rat cerebral arteries cultured under physiological pressure and flow. A segment of the rat cerebral artery is surgically removed and placed in ringer's solution. Using a surgical stereoscope, the blood vessel is tied at either end to two cannulas on a teflon stage. Ringer's solution is perfused through the lumen of the vessel at a constant rate that maintains physiologic hydrostatic pressure. The fluorescent peptide was introduced intraluminally by perfusing a 1 μM solution of peptide through the lumen over a 10 minute period.
Rats were anesthetized by intraperitoneal injection of pentobarbital sodium (160 mg/kg) and killed by decapitation. The brain was removed and placed in an ice-cold oxygenated physiological cerebrospinal fluid (PCSF, see below for composition). Cerebellar arteries were isolated and mounted in an arteriograph as described previously (Knot and Nelson 1998). The arteriograph was placed on an inverted microscope and the artery was visualized with a monochrome CCD camera coupled to a calibrated video caliper system to measure arterial diameter. The arteries were slowly pressurized to 70 mmHg under no flow conditions using a pressure servo-null system (Living Systems Inc., Burlington Vt.), and warmed to 37° C. while being continuously superfused (5 ml/min) with PCSF bubbled with 21% O2, 5% CO2, 74% N2 (pH 7.35-7.40 in the bath). […] Myogenic tone is calculated by the following equation: Myogenic tone=(Dp−Da)/Dp×100
In some experiments, the arterial segments were denuded of endothelium by passing an air bubble through the lumen, thus exposing the smooth muscle cells to luminally administered peptides. Constriction to pressure and 60 mM KCl and dilation of arteries with myogenic tone to 16 mM KCl were used as benchmarks of functional arteries. Peptide containing PCSF was perfused intraluminally at an inlet pressure of 70 mmHg with the outlet open, for 20 min and then perfused with normal PCSF. This procedure ensures a 20 min of exposure of the arteries to the peptide.

Structure (SMILES): C[C@H](N)C(=O)NCC(=O)NCC(=O)NCC(=O)N[C@@H](Cc1ccc(O)cc1)C(=O)NCC(=O)N[C@@H](CCCNC(=N)N)C(=O)N[C@@H](CCCCN)C(=O)N[C@@H](CCCCN)C(=O)N[C@@H](CCCNC(=N)N)C(=O)N[C@@H](CCCNC(=N)N)C(=O)N[C@@H](CCC(N)=O)C(=O)N[C@@H](CCCNC(=N)N)C(=O)N[C@@H](CCCNC(=N)N)C(=O)N[C@@H](CCCNC(=N)N)C(=O)O [Tat]
- % Viable (RG2 cells): ineffective
- viability [1]: 94%
- viability [2]: 94.9%
- % killing (toxicity) (T98G cells; 10 μM peptide, 1 hr): no toxicity
- % Viable Cells (T98G cells; peptides in complete media for 1 hr, Table 2): ineffective
- staining pattern (cell uptake) (A172 cells): intracellular punctate
- labeling/uptake by endothelial cells [3]: selectively labeling the endothelial nuclei
- labeling/uptake by smooth muscle cells [3]: did not label the smooth muscle cells

— patent US7339042B2, “Gene delivery to tumors” (University of Florida Research Foundation, Inc., priority 2003, dated 2008)
